Laboratory results from US10729659B2, “Nanogel-mediated drug delivery” (The Cleveland Clinic Foundation, priority 2012, dated 2020).

Legend:
p21 = experiment: Western blotting of p21; assay type: cell-based, human; details: MCF-7/Adr
Protocol: (§1) Whole cell lysates, were made by lysing 1×10^6 treated or untreated cells, with RIPA buffer (Sigma-Aldrich, St. Louis, Mo.) containing 1× protease inhibitor cocktail (Calbiochem, Gibbstown, N.J.). Lysates were collected by centrifugation at 14,000 rpm for 15 min Protein concentration was determined by a bicinchoninic acid (BCA) assay kit (Pierce, Rockford, Ill.). 20-40 μg proteins of cell lysates were electrophoresed through 13.5% SD Spolyacrylamide gel or 4-15% linear pre-cast polyacrylamide gradient gel (Bio-Rad Laboratories, Hercules, Calif.) and transferred to polyvinylidene difluoride (PVDF) membranes (GE Healthcare Bio-sciences, corp., Piscataway, N.J.). The blots were probed for mouse monoclonal p21 (Cell Signaling Technology, Inc., Danvers, Mass.), mouse monoclonal DNMT1 (Abcam Inc., Cambridge, Mass.), and mouse monoclonal anti-actin (Sigma-Aldrich, St. Louis, Mo.). For detection of bound antibody, PVDF membrane was incubated with horse radish—tagged, goat anti-mouse antibody. After incubation membrane was washed with TBST, and stained with enhanced chemiluminescence (ECL) reagent or ECL plus reagent (GE Healthcare Bio-sciences, corp., Piscataway, N.J.) according to manufacturer protocol.

[1] = DAC stability in cell culture media; assay type: physicochemical; details: 50 μg/mL, DMEM with 15% FBS, 37° C.
Protocol: Samples were incubated as 2 mL aliquots at 37° C., collected at various time points and lyophilized. To extract DAC from lyophilized samples 3 mL of methanol was added and kept on orbital rotating shaker at 100 rpm in cold room overnight.

MCF-7/Adr cells = experiment: Cellular uptake of dox; assay type: cell-based, human; details: DAC 50 ng/mL 24 h, then dox 1 μg/mL; 15 min to 12 h
Protocol: Drug resistant breast cancer cells were seeded in 24 well plates (1.2×10^6 cells/well). Post 48 h seeding, cells were pre-treated with DAC (50 ng/mL; 24 h); and then incubated with fixed concentration of dox (1 μg/mL) for indicated time points. Post drug incubation cell lysates in RIPA buffer was collected and lyophilized. Dox was extracted from lyophilized cell lysates using methanol as the solvent and analyzed by HPLC.

[2] = test system: MCF-7/Adr xenograft tumor; experiment: In vivo anti-tumor efficacy, drug-resistant breast cancer model; parameters: species or system athymic nude mice; details: single intravenous dose 15 mg/kg; vs control nanogel, DAC in solution
Protocol: A murine drug-resistant breast cancer model (MCF-7/ADR) was used to investigate the anti-tumor efficacy of DAC nanogels. To establish tumors, 1×10^6 MCF-7/ADR cells were suspended in 100 μL of matrigel (BD biosciences San Jose, Calif.) and injected in the mammary fat pad via a 27 G ½ gauge needle. Tumor nodules were allowed to grow to about 300 mm3 prior to receiving DAC nanogels (drug dose 15 mg/kg) or its respective controls (DAC in solution or Control Nanogels) intravenously. Post single treatment, tumor dimensions were measured with a digital caliper at regular time intervals and the tumor volume was calculated using the formula [length×(width)^2]/2. […] Data were expressed as mean±SEM (n=3 to 6). Variances in tumor growth were determined using one-way ANOVA test followed by Tukey test using GraphPad Prism version 4.0 for Windows (p<0.05).
In vivo anti-tumor efficacy of DAC nanogels in athymic nude mice bearing MCF-7/Adr xenograft tumor: To establish tumors, 1×10^6 MCF-7/Adr cells were suspended in 100 μL of matrigel (BD biosciences San Jose, Calif.) and injected in the mammary fat pad via a 27 G ½ gauge needle. […] Tumor dimensions were measured with a digital caliper at regular time interval and the tumor volume was calculated using the formula [length×(width)2]/2. Data were expressed as mean±SEM (n=3 to 6). […]

[3] = DAC stability in liver extract; assay type: in vitro ADME; details: 15% w/v liver extract of athymic nude mice
Protocol: Freshly prepared DAC solution (50 μg/mL) or DAC loaded nanogel (equivalent drug concentration) was added in cell culture media (DMEM supplemented with 15% FBS and 1% penicillin-streptomycin), and incubated in cell culture incubator at 37° C. in a 5% CO2. Samples were incubated as 2 mL aliquots at 37° C., collected at various time points and lyophilized for 48 h at −48° C., 3.5 Pa, using FreeZone 4.5 (Labconco Corp., Kansas City, Mo.). DAC was extracted from lyophilized samples by adding 3 mL of methanol and kept on an orbital rotating shaker at 100 rpm in cold room overnight. 1 mL of methanolic extract was centrifuged at 14,000 rpm for 15 min at 4° C.; supernatant was collected and analyzed by HPLC. Identical protocol was followed for analyzing the stability of DAC in Mili Q water containing 15% heat inactivated or normal serum. Stability of DAC was also analyzed in 15% w/v liver extract of athymic nude mice using the indicated protocol.

DNMT1 = target: T1, DNMT1 (Homo sapiens, UniProt P26358); experiment: Western blot of DNMT1 depletion in MCF-7/Adr cells; assay type: cell-based
T1 construct: Whole cell lysates were collected at the end of each time point and western blot was done for the expression of DNMT1; endogenous in cells; host or cells: MCF-7/Adr cells
Protocol: as §1, with “protocol. […]” for “protocol.”

[4] = cited from earlier work

T1 sequence (P26358 whole entry): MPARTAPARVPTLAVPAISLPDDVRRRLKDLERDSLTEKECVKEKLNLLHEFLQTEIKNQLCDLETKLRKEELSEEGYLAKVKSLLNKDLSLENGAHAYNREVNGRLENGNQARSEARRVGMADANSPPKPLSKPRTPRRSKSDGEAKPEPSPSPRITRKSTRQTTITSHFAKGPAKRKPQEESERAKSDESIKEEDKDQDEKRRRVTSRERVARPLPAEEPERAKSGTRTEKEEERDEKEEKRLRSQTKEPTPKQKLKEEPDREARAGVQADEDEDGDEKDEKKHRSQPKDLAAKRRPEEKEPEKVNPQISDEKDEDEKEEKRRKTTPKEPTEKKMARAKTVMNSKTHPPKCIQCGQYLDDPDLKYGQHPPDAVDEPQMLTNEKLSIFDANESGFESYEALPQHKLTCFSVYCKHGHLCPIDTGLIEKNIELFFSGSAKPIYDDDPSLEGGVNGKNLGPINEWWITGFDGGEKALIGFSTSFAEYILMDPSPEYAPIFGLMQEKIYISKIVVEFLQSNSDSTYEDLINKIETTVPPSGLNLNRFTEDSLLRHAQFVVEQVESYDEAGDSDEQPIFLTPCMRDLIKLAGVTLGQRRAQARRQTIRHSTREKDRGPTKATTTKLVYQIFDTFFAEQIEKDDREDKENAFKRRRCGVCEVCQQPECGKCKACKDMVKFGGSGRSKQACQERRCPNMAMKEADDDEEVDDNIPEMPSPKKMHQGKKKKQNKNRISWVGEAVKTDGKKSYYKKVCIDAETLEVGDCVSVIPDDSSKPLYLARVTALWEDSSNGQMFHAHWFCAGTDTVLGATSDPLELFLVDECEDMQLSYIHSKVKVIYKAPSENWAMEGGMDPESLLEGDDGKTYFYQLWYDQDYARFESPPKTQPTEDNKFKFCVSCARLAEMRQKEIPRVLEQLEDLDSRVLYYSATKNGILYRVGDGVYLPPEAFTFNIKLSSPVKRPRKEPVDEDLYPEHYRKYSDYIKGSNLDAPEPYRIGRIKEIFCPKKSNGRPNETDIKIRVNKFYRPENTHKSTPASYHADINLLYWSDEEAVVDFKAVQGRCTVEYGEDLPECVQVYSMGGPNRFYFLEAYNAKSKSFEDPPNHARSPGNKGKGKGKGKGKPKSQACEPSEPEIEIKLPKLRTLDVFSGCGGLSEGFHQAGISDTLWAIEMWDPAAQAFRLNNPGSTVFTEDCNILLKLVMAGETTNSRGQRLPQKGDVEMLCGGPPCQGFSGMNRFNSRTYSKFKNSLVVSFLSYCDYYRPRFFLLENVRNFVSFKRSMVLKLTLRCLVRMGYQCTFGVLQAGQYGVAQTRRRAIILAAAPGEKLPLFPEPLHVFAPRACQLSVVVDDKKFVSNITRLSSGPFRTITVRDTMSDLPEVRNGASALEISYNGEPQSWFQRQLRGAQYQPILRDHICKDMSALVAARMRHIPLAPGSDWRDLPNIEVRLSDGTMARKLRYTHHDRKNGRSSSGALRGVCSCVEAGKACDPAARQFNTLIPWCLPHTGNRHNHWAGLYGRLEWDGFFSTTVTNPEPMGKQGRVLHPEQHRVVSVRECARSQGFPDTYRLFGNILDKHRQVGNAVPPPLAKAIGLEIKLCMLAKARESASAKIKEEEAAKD

With `Nc1ncn([C@H]2C[C@H](O)[C@@H](CO)O2)c(=O)n1` [DAC, 5-aza-2′-deoxycytidine] the “p21 protein expression (immunoblotting)” value (p21) was “significant increase”, the “No detectable levels of DAC at” value [1] was 8 h and the “DAC degraded within an hour” value ([1]; 1 h) was 60%. For the same compound, the “Uptake of dox in DAC pre-treated cells vs dox alone” value (MCF-7/Adr cells) was “higher increase in uptake of dox”, the “Tumor growth / tumor size” value [2] was “not different” and the “Complete degradation of DAC, time post incubation” value [3] was 60 min. For the same compound, the “Duration of DNMT1 depletion” value (DNMT1; 50 ng/mL) was 24 h, the “DNMT1 levels vs untreated” value (DNMT1; 2, 3 and 5 days post treatment) was “No difference in DNMT1 levels” and the Half-life ([4]; in humans) was 10 to 35 min. For the same compound, the Clearance ([4]; in vivo) was “very high clearance”.
